These results are taken from paper PMC11073428, “The activity of pyrazolo[4,3-e][1,2,4]triazine and pyrazolo[4,3-e]tetrazolo[1,5-b][1,2,4]triazine sulphonamide derivatives in monolayer and spheroid breast cancer cell cultures” (Journal of Enzyme Inhibition and Medicinal Chemistry, 2024).

In test [1] the test system is MCF-7 breast cancer cells. Description: Apoptosis, annexin V-FITC/PI flow cytometry, MCF-7. The conditions noted are these: 24 h. The format is cell-based, human. The method, then:
The analysis was performed using flow cytometry Apoptosis Detection Kit II (BD Biosciences, San Diego, CA) as described previously.

A further test concerns ROS in MDA-MB-231 cells. Description: Total ROS activity, flow cytometry, MDA-MB-231. The test is classed as cell-based, human. The conditions noted are these: for cells with ROS: 24 h. The method, then: In brief, cells were washed two times with cold PBS solution and incubated in a solution of ROS Green dye in Assay Buffer and incubated for 1 h in optimal cell growth parameters, protected from light. After incubation, cells were washed with assay buffer. Subsequently, fluorescence emission intensities at 490 nm excitation and 520 nm emission were recorded in 500 μL assay buffer using flow cytometer BD FACSCanto II flow cytometer and FACSDiva software (BD Biosciences Systems, San Jose, CA).

For another test, the system named is p53 in MCF-7 cells. Description: Anti-p53 antibody flow cytometry, MCF-7. The format is cell-based, human. The conditions noted are these: MCF-7, 0.25 µM and 0.5 µM, 24 h. The protocol:
(§1) To evaluate the molecular mechanism of induction of apoptosis of tested compounds, the level of p53, NF-κB, mTOR, Bax, and beclin-1 was measured using appropriate antibody according to the manufacturer’s instruction. In brief, tryspinised cells were centrifuged, then supernatant was discarded, and cells were suspended in 4% FA (formaldehyde). Prepared samples were incubated 15 min at RT. Following incubation, the 2.5 mL PBS was added to each sample and centrifuged. Then, supernatant was discarded, and cells were resuspended in 90% ice-cold methanol to perform permeabilisation and left for 1 h in ice. To remove methanol, cells were rinsed with excess PBS by centrifugation. Following centrifugation, the supernatant was discarded. Then, cells were resuspended in 100 µL of appropriate diluted (1:100 in PBS) antibody conjugate (p53 (7F5) Rabbit mAb – Alexa Fluor 488 Conjugate #5429 Cell Signalling Technology, Danvers, MA; NF-κB p65 (D14E12) XP Rabbit mAb – Alexa Fluor 647 Conjugate #8801 Cell Signalling Technology, Danvers, MA; mTOR (7C10) Rabbit mAB – Alexa Fluor 647 #5048 Cell Signalling Technology, Danvers, MA; FITC Anti-Bax antibody (T22-A) #ab139543, Abcam, Cambridge, UK) and incubated 1 h in the dark at RT. Afterwards, cells were washed by centrifugation in 2 mL of incubation buffer. Finally, supernatant was removed and 300 µL PBS was added to each sample and pipetted. […]
In general terms: A flow cytometer gives signals particle by particle.

For a further test, the system named is p53 in MDA-MB-231 cells. Description: Anti-p53 antibody flow cytometry, MDA-MB-231. The test is classed as cell-based, human. The conditions noted are these: MDA-MB-231, 0.25 µM and 0.5 µM, 24 h. The method, then:
as §1

Test [2] concerns caspase 3/7 in MDA-MB-231 cells. Description: Activity of caspase 3/7, MDA-MB-231. The test is classed as cell-based, human. The conditions noted are these: 24 h. The protocol: MCF-7 and MDA-MB-231 cells were plated in six-well plates at density 1 × 10^6 and cultured in DMEM for 24 h. […] Then to identify the involvement of caspase family in inducing apoptosis, cells were pre-treated with Z-VAD-FMK (100 µM) 2 h before adding compounds[28]. The activation of caspases 9, 10, and 3/7 was detected as described before.

Test [3] relates to beclin-1 in MDA-MB-231 cells. Description: Anti-beclin-1 antibody flow cytometry, MDA-MB-231. The test is classed as cell-based, human. The conditions noted are these: MDA-MB-231, 0.5 µM, 24 h. The method, then: The fixation and permeabilisation were performed as described above. Cells were resuspended in 100 µL of diluted primary antibody (1:100 in PBS, anti-beclin 1 antibody (2A4) #ab114071, Abcam, Cambridge, UK) and incubated 30 min in the dark at RT. The cells were washed three times by centrifugation in PBS. Then to each probe, 100 µL of diluted fluorochrome-labelled secondary antibody (1:100 in PBS; goat anti-mouse IgG H&L – Alexa Fluor 488 #ab150113, Abcam, Cambridge, UK) was added and incubated 30 min in dark at RT. Then, cells were rinsed with 2.5 mL PBS. In the last step, supernatant was discarded and cells were resuspended in 300 µL PBS and pipetted. The analysis was carried out by flow cytometry.

Test [4] has as its system MDA-MB-231 breast cancer cells. Description: MTT viability assay, MDA-MB-231.
Protocol: Following 24-h incubation with tested compounds, the medium was discarded from the cell cultures. Then, into each well with cells was added 1 mL of PBS and 50 µL of MTT solution (5 mg per mL). Cells were incubated at 37 °C and 5% CO2 in humidified atmosphere for a defined time appropriate for each cell line. After incubation, the solution above the cells was removed and obtained purple formazan crystals were dissolved in 1 mL DMSO. The absorbance was read at OD = 570 nm on Evolution 201 Spectrophotometer (Thermo Scientific, Waltham, MA).

In test [1] (MCF-7, 0.25 µM), `Cc1nn(-c2ccc(S(=O)(=O)N[C@@H](CO)Cc3ccccc3)cc2)c2nn3nnnc3nc12` [Compound 3b, (R)-N-(1-hydroxy-3-phenylpropan-2-yl)-4-(7-methyl-5H-pyrazolo[4,3-e]tetrazolo[1,5-b][1,2,4]triazin-6-yl)benzenesulfonamide] yielded an apoptotic cells of 50.6 ± 3.5%. Moreover, the “early and late apoptotic cells” value in test [1] (MCF-7, 0.5 µM) is 98.9 ± 1.6%. Moreover, the “cells with ROS” value in the test with ROS in MDA-MB-231 cells (MDA-MB-231, 0.25 µM) is recorded as 7.0 ± 0.6%; in the test with ROS in MDA-MB-231 cells (MDA-MB-231, 0.5 µM), 9.4 ± 0.7%. Moreover, the “increase of ROS level compared to control” value in the test with ROS in MDA-MB-231 cells (MDA-MB-231, 0.5 µM) is recorded as “four”. Besides, the “effect on p53 (in words)” value in the test on p53 in MCF-7 cells and in the test with p53 in MDA-MB-231 cells was “activates p53” each time. For the same compound, the “cells with active executive caspases (3 and 7)” value in test [2] (MDA-MB-231, 0.25 µM) is 23.8 ± 0.8%; in test [2] (MDA-MB-231, 0.5 µM), 68.4 ± 1.2%. The “cells with active beclin-1” value in test [3] is recorded as 8.1 ± 0.1%. In addition, the IC50 in test [4] (Homo sapiens, MDA-MB-231, 24 h, read-out: Cytotoxicity IC50 MDA-MB-231) is 310 ± 140 nM. In test [4] (ratio of cytotoxicity, 3a vs 2a, 3b vs 2b), the “times stronger than the corresponding sulphonyl derivative (2a or 2b), MDA-MB-231” value came to 25 times.

In general, IC50 refers to the point on the concentration scale where inhibition reaches its midpoint.
